Series [1] can be described thus: Adsorption kinetic model fitting of the five components on the carrier. The format is physicochemical. Set-up: k, pseudo-first order: unit not given beside the values. Here is the method:
Preparation of W/HPDA/L nanoparticles: Briefly, 0.5 mL of TEOS were added over a stirred solution of 2 mL of NH3∙H2O solution in 100 mL of ethanol. The reaction mixture was vigorously stirred at room temperature for 3 h to obtain SiO2 nanoparticles. Then, 1.5 mL of APTES were dropped to the reaction mixture. Finally, SiO2-NH2 nanoparticles were collected by centrifugation at 10000 rpm for 10 min, then washed twice with ethanol and resuspended in ethanol for further use. As for the preparation of W@SiO2 nanoparticles, 1 mL of SiO2-NH2 nanoparticles and 4 mL of water components solution (1 mg RA and 12 mg SAB) were first mixed together. Under stirring for 12 h, the resultant W@SiO2 nanoparticles were acquired by centrifugation (10000 rpm, 10 min) and washed thrice with DI water. The total content of water-soluble in the supernatant (free RA and SAB) were determined by HPLC. W@SiO2 nanoparticles obtained by centrifugation were resuspended with Tris-HCl solution containing dopamine hydrochloride. PDA was prepared according to our precious report. This was followed by the addition of 2 mL of etching solution. Then, through centrifugation (12000 rpm, 5 min) and washing with ultrapure water three times, W/HPDA nanoparticles were acquired for later use. After dissolving 6 mg of lipid-soluble components (1 mg CPT, 2.5 mg TSI and 2.5 mg TSA) in 4 mL of ethanol, it was added to 1 mL of W/HPDA nanoparticles dispersed solution. After 12 h of stirring at room temperature, W/HPDA/L nanoparticles were collected by centrifugation and subsequently dispersed in water for further use. Similarly, HPDA was synthesized as previously described. 13 mg of water-soluble components solution (1 mg RA and 12 mg SAB) and 6 mg of lipid-soluble components (1 mg CPT, 2.5 mg TSI and 2.5 mg TSA) were dissolved in 4 mL PBS containing 0.1 % DMSO and added to 3 mL HPDA aqueous dispersion. The mixture was then stirred at room temperature for 12 h, centrifuged, and washed to obtain HPDA/WL nanoparticles. The total content of lipid-soluble in the supernatant (free CPT, TSI and TSA) were determined by HPLC.
An adsorption kinetic model was used to fit the effect of adsorption time on the adsorption performance of adsorbents, further speculating the mechanism of adsorption. The results of the adsorption kinetics of five components were fitted using the pseudo-first-order and pseudo-second-order model, respectively.

Series [2] can be described thus: In vitro drug release in 1 % SDS (dialysis, HPLC). It counts as physicochemical. The following applies: release from W/HPDA/L, 1 % SDS pH 6.5–6.8. Here is the method: Five compounds were measured by HPLC at 0.5, 1, 2, 4, 8, 12 and 24 h. In order to elucidate the release mechanism of W/HPDA/L, release kinetic models (Ritger-Peppas model) were employed to fit the data available.

Another series has as its system ZO-1. Put plainly: ZO-1 tension by FRET-based tension probes in bEnd.3 cells. The format is cell-based. To be noted: 15 min treatment, then removal and 15 min observation. Here is the method: (§1) 6 × 10^4 bEnd.3 cells were seeded in the donor chamber of 24-well transwell inserts. […] The viability of bEnd.3 cells following borneol treatment was assessed using the Cell Counting Kit-8 (CCK-8) assay. We added 0.9 mL of PBS-based assay medium to blank 24-well culture plates and 0.2 mL of borneol (0, 100, 400 μM) to the apical side of the BBB layers. TEER was measured at 5, 10, and 15 min. Additionally, 100 nm silica nanoparticles and sodium fluorescein at the same concentrations were administered at three time points. […] The intracellular tension of the tight junction protein ZO-1 was evaluated using fluorescence resonance energy transfer (FRET)-based tension probes and cpstFRET analysis, as previously described. bEnd.3 cells were transfected with ZO-1 probes and incubated with 1000 μg/mL geneticin. After treating the cells with borneol for 15 min, the borneol was removed, and observations continued for an additional 15 min. Cells treated with Hanks' solution served as the control group. The cell images were taken with × 63 oil lens on a confocal microscope (SP5; Leica, Wetzlar, Germany). The CFP/FRET ratio was calculated using the equation 1/E = cerulean donor/venus acceptor.

The test system of series [3] is bEnd.3 cells. In words: In vitro BBB permeability (bEnd.3 transwell model). The format is cell-based. To be noted: 100 and 400 μmol borneol. Here is the method:
as §1, with “TEER was measured at 5, 10, and 15 min.” left out, “cpstFRET” left out

Series [4] concerns bEnd.3 cells. In words: Viability of bEnd.3 cells following borneol treatment (CCK-8). It counts as cell-based. The following applies: 5 to 500 μmol/l. Here is the method:
as §1

Molecules are shown by their SMILES.

In the case of `C[C@H]1COC2=C1C(=O)C(=O)c1c2ccc2c1CCCC2(C)C` [CPT, cryptotanshinone], in series [1], the “Qe, pseudo-first order” value is 4.60 mg/g; the “Qe, pseudo-second order” value is given as 5.06 mg/g; the “k, pseudo-first order” value was found to be 0.76; the “k, pseudo-second order” value turned out to be 0.14. In series [2], the “Ritger-Peppas release exponent n” value is given as “n = 0.39” and the “Ritger-Peppas release model coefficient (y = k t^n)” value is “y = 19.26t^n”.
On to `CC1(C)C2CCC1(C)C(O)C2` (stereo not shown) [borneol], for which, in the series on ZO-1, the “ZO1 tension (CFP/FRET)” value was “increased but decreased after 15 min of borneol removal”. Moreover, the “Time at which maximum BBB permeability is reached” value in the series on bEnd.3 cells [3] is recorded as 10 min. Also, in the series with bEnd.3 cells [4], the “Cytotoxic effects on bEnd.3 cells” value is recorded as “no cytotoxic effects”.
Regarding `Cc1coc2c1C(=O)C(=O)c1c-2ccc2c(C)cccc12` [TSI, tanshinone I], in series [1], the “Qe, pseudo-first order” value is 4.50 mg/g; the “Qe, pseudo-second order” value amounted to 5.21 mg/g; the “k, pseudo-first order” value is on record as 0.53; the “k, pseudo-second order” value was found to be 0.16. Moreover, in series [2], the “Ritger-Peppas release exponent n” value is on record as “n = 0.35” and the “Ritger-Peppas release model coefficient (y = k t^n)” value was “y = 27.02t^n”.
For the compound `Cc1coc2c1C(=O)C(=O)c1c-2ccc2c1CCCC2(C)C` [TSA, tanshinone IIA], in series [1], the “Qe, pseudo-first order” value is recorded as 4.14 mg/g; the “Qe, pseudo-second order” value is given as 4.74 mg/g; the “k, pseudo-first order” value was 0.89; the “k, pseudo-second order” value turned out to be 0.21. In addition, in series [2], the “Ritger-Peppas release exponent n” value is listed as “n = 0.37” and the “Ritger-Peppas release model coefficient (y = k t^n)” value is on record as “y = 24.68t^n”.
Turning to `O=C(/C=C/c1ccc(O)c(O)c1)O[C@H](Cc1ccc(O)c(O)c1)C(=O)O` [RA, rosmarinic acid], in series [1], the “Qe, pseudo-first order” value turned out to be 6.23 mg/g; the “Qe, pseudo-second order” value turned out to be 7.78 mg/g; the “k, pseudo-first order” value is on record as 0.29; the “k, pseudo-second order” value was found to be 0.03. For the same compound, in series [2], the “Ritger-Peppas release exponent n” value is given as “n = 0.83” and the “Ritger-Peppas release model coefficient (y = k t^n)” value is “y = 6.28t^n”.
With `N[C@@H](CCC(=O)O)C(=O)O` [Glu, Glutamate, reference compound], in the series with ZO-1, the “ZO1 tension (CFP/FRET)” value is “increased and continued to rise even 15 min after Glu removal”.
As to `O=C(/C=C/c1ccc(O)c2c1[C@H](C(=O)O[C@H](Cc1ccc(O)c(O)c1)C(=O)O)[C@@H](c1ccc(O)c(O)c1)O2)O[C@H](Cc1ccc(O)c(O)c1)C(=O)O` [SAB, salvianolic acid B], in series [1], the “Qe, pseudo-first order” value worked out at 18.27 mg/g; the “Qe, pseudo-second order” value was 21.95 mg/g; the “k, pseudo-first order” value is 0.27; the “k, pseudo-second order” value is 0.01. Further, in series [2], the “Ritger-Peppas release exponent n” value was “n = 0.78” and the “Ritger-Peppas release model coefficient (y = k t^n)” value is listed as “y = 8.41t^n”.

These data come from PMC12311606, “An efficient brain delivery system co-loaded with multiple components of Salvia miltiorrhiza for synergistic treatment of ischemic stroke” (Materials Today Bio, 2025).
